The source made the active and inactive calls.
Key:
[1] = system: Streptococcus sp. 'group A'; assay: growth inhibition of control SK(-) GAS strain, dose response, counter-screen for streptokinase expression inhibitor project, luminescence, kanamycin, BacTiterGlo, confirmation (AID 1900); assay type: functional, organism-based
Streptokinase A = target: T1, Streptokinase A (Streptococcus pyogenes serotype M1, UniProt P10520); assay: S. pyogenes streptokinase expression inhibitors, potency, dose response, plasminogen activation absorbance, OD405 (AID 1914); assay type: functional, Streptococcus pyogenes M1 GAS;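 also: secreted streptokinase activity via plasminogen activation per viability signal from cell pellet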
T1 sequence (P10520 whole entry): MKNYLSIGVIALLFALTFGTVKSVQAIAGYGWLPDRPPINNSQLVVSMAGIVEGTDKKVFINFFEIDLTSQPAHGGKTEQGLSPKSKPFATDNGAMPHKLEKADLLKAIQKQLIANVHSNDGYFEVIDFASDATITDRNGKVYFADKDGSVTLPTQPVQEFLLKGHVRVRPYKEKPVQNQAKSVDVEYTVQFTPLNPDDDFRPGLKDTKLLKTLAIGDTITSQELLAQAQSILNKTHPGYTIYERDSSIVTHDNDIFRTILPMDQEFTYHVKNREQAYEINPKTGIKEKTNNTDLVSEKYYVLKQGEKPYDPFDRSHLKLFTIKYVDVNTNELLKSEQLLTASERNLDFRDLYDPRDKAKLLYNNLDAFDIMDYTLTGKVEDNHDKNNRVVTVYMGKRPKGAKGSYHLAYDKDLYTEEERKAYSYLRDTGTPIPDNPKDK

Prothrombin = Prothrombin (Homo sapiens, UniProt P00734); assay: Thrombin 1536 HTS Dose Response Confirmation. [Related pubchem assays: 1046 (Thrombin 1536 HTS; hits were confirmed in this assay)]; assay type: functional
Streptococcus = assay: Group A Streptococcus viability loss, dose response, counter-screen for streptokinase expression inhibitor project, luminescence, BacTiterGlo (AID 1915); assay type: functional, organism-based;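 also: potency for reduction of bacterial viability or growth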
[2] = HEp-2 cell cytotoxicity, dose response, cytotoxicity control for RSV inhibitor project, HTS (AID 2410); assay type: functional; conditions: human respiratory syncytial virus
[3] = target: T2, Heat shock factor protein 1 (Mus musculus, UniProt P38532); assay: HSF1 potentiators in luciferase reporter cells, confirmation, cell-based, NIH3T3, luminescence, dose retest (AID 435004); assay type: functional;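 also: stress induced by proteasome inhibitor MG132 added 30 min after compound; luciferase reporter driven by HSF1 response element in NIH3T3 cells; actives raise luminescence as potentiators of the MG132 stress response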
T2 sequence (P38532 whole entry): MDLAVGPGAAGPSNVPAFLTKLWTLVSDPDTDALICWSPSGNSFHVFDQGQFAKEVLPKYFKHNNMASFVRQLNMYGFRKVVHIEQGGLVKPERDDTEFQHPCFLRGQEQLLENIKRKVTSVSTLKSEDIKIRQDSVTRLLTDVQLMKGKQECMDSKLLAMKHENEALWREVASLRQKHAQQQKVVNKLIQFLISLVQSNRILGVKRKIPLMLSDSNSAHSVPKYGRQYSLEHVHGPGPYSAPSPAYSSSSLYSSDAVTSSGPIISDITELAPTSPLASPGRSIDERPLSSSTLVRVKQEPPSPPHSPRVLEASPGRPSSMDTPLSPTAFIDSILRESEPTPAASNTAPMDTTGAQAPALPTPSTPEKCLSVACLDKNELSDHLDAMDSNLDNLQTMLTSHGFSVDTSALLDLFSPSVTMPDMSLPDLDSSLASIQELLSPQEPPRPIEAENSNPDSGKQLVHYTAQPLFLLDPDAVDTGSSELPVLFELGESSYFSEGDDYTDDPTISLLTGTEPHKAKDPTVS

[4] = A Cell Based Secondary Assay To Explore Cytotoxicity of Compounds that Sensitize Mycobacterium Tuberculosis to Beta-Lactam Antibiotics.; assay type: functional
[5] = target: T3, Sentrin-specific protease 8 (Homo sapiens, UniProt Q96LD8); assay type: functional
T3 sequence (Q96LD8 whole entry): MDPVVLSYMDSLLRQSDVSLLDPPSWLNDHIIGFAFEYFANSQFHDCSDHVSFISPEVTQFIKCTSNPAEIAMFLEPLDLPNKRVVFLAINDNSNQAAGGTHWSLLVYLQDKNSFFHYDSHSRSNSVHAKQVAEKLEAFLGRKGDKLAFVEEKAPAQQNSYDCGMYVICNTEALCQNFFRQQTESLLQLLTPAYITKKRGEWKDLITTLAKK

[6] = target: T3, Sentrin-specific protease 8; assay type: functional; remark: listed apart in the source
[7] = target: T4, Long-chain-fatty-acid--AMP ligase FadD28 (Mycobacterium tuberculosis, UniProt P9WQ59); assay: Fluorescence polarization aasay to screen for inhibitors that compete for the binding of FadD28 to a bisubstrate Measured in Biochemical System Using Plate Reader - 2147-01_Inhibitor_Dose_CherryPick_Activity.; assay type: functional, Mycobacterium tuberculosis H37Rv
T4 sequence (P9WQ59 whole entry): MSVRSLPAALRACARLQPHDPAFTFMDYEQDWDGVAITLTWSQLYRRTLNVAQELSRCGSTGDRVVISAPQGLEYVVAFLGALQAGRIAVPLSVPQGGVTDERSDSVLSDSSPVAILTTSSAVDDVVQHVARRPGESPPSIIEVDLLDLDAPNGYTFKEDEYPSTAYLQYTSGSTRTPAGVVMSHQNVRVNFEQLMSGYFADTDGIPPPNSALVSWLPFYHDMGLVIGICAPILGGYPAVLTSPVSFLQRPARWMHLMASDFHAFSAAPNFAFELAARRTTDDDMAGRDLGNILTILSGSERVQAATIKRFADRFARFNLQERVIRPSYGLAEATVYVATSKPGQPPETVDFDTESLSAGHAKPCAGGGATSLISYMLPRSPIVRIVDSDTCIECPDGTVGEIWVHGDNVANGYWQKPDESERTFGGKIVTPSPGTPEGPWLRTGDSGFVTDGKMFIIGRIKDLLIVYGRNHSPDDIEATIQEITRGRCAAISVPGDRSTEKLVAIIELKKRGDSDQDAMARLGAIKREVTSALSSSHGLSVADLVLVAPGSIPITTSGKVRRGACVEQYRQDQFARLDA

[8] = target: T5, Carboxy-terminal domain RNA polymerase II polypeptide A small phosphatase 1 (Homo sapiens, UniProt Q9GZU7); assay: inhibitors of CTDSP1, concentration-response testing, biochemical assay, absorbance-based, actives from ultra-high-throughput screening (AID 540297); assay type: functional
T5 sequence (Q9GZU7 whole entry): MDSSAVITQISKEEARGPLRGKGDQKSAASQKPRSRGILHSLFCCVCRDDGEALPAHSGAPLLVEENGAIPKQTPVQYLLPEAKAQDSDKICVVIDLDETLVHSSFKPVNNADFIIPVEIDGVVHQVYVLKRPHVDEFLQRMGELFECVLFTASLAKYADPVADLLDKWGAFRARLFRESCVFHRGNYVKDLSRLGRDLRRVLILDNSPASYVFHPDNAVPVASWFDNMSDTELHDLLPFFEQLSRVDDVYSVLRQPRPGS

[9] = target: T6, Low molecular weight phosphotyrosine protein phosphatase (Homo sapiens, UniProt P24666); assay type: functional; conditions: read-out: IC50_Mean;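 also: Dose-response confirmation assay measuring inhibition of LMPTP enzyme activity by fluorescence intensity read-out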
T6 sequence (P24666 whole entry): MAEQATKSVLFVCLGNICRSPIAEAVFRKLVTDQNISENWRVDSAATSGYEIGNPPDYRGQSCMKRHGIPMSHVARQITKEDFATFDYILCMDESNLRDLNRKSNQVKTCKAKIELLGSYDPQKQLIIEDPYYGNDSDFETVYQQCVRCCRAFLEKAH

Aminopeptidase N = target: T7, Aminopeptidase N (Plasmodium falciparum FcB1/Columbia, UniProt O96935); assay: P. falciparum M1AAP inhibitors, biochemical, fluorogenic H-Leu-NHMec substrate, 1536-well (AID 1445); set-up: species or system Plasmodium falciparum 3D7, 3D7
T7 sequence (O96935 whole entry): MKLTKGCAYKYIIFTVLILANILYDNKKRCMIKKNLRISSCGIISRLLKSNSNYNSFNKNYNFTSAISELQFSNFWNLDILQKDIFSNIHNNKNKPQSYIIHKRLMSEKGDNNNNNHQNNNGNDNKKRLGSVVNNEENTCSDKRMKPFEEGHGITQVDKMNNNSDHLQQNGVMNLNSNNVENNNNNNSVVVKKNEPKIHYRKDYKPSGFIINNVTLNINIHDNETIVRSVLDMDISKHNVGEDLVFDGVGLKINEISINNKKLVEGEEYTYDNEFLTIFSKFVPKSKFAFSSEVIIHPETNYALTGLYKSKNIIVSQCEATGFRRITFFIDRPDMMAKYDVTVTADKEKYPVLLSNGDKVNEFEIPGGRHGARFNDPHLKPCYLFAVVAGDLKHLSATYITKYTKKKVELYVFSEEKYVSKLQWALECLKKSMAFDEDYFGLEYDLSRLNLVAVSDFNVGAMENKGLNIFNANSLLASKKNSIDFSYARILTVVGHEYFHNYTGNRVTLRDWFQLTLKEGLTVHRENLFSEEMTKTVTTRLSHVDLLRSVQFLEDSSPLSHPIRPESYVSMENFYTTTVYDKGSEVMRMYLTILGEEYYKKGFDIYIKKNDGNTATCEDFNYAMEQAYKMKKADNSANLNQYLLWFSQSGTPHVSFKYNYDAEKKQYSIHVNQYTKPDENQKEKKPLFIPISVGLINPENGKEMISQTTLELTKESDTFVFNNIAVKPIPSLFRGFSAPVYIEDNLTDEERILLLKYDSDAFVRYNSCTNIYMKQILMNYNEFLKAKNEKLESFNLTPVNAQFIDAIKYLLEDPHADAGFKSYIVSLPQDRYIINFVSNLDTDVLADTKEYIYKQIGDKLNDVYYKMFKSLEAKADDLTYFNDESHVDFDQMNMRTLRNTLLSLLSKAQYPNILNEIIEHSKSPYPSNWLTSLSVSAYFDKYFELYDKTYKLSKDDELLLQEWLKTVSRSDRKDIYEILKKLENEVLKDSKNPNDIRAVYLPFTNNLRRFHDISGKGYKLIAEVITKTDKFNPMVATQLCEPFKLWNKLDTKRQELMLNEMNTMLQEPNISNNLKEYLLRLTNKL

[10] = Luminescence Cell-Based Dose Retest to Confirm Inhibitors of Cancer Stem Cells. [Related pubchem assays (depositor defined):AID2717, AID2721]; assay type: functional; conditions: Homo sapiens
[11] = target: T8, High affinity choline transporter 1 (Homo sapiens, UniProt Q9GZV3); assay: CHT inhibitors, dose response, cell-based, 5-point CRC, membrane potential dye (AID 504840); assay type: functional
T8 sequence (Q9GZV3 whole entry): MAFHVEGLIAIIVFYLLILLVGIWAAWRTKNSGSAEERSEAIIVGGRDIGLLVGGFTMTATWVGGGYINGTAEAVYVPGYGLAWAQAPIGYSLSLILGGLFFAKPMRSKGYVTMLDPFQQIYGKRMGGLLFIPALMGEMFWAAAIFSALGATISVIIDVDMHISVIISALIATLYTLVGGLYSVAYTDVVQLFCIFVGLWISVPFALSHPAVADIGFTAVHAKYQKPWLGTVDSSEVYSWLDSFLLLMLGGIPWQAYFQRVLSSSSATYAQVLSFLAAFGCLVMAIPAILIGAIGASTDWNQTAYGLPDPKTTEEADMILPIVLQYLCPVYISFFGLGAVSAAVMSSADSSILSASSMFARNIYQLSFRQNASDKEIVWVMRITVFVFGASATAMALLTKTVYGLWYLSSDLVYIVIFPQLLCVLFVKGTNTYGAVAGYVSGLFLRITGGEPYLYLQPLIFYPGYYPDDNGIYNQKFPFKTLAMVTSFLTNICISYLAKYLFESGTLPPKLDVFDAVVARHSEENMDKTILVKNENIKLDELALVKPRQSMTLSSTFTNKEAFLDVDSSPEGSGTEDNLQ

Fatty acid synthase [12] = target: T9, Fatty acid synthase (Homo sapiens, UniProt P49327); assay: FAS thioesterase domain inhibitors, dose response, biochemical, endpoint fluorescence intensity, uHTS hits (AID 624327); assay type: functional;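 also: fluorescence from hydrolysis of an O-methyl fluorescein acyl ester substrate by the enzyme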
Fatty acid synthase [13] = target: T9, Fatty acid synthase; assay: FAS thioesterase domain inhibitors, dose response, biochemical, kinetic fluorescence intensity (AID 624326); assay type: functional;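 also: rate of fluorescence rise from hydrolysis of a fluorogenic O-methyl fluorescein ester substrate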

T9 sequence (P49327 whole entry, the tested form may be a part): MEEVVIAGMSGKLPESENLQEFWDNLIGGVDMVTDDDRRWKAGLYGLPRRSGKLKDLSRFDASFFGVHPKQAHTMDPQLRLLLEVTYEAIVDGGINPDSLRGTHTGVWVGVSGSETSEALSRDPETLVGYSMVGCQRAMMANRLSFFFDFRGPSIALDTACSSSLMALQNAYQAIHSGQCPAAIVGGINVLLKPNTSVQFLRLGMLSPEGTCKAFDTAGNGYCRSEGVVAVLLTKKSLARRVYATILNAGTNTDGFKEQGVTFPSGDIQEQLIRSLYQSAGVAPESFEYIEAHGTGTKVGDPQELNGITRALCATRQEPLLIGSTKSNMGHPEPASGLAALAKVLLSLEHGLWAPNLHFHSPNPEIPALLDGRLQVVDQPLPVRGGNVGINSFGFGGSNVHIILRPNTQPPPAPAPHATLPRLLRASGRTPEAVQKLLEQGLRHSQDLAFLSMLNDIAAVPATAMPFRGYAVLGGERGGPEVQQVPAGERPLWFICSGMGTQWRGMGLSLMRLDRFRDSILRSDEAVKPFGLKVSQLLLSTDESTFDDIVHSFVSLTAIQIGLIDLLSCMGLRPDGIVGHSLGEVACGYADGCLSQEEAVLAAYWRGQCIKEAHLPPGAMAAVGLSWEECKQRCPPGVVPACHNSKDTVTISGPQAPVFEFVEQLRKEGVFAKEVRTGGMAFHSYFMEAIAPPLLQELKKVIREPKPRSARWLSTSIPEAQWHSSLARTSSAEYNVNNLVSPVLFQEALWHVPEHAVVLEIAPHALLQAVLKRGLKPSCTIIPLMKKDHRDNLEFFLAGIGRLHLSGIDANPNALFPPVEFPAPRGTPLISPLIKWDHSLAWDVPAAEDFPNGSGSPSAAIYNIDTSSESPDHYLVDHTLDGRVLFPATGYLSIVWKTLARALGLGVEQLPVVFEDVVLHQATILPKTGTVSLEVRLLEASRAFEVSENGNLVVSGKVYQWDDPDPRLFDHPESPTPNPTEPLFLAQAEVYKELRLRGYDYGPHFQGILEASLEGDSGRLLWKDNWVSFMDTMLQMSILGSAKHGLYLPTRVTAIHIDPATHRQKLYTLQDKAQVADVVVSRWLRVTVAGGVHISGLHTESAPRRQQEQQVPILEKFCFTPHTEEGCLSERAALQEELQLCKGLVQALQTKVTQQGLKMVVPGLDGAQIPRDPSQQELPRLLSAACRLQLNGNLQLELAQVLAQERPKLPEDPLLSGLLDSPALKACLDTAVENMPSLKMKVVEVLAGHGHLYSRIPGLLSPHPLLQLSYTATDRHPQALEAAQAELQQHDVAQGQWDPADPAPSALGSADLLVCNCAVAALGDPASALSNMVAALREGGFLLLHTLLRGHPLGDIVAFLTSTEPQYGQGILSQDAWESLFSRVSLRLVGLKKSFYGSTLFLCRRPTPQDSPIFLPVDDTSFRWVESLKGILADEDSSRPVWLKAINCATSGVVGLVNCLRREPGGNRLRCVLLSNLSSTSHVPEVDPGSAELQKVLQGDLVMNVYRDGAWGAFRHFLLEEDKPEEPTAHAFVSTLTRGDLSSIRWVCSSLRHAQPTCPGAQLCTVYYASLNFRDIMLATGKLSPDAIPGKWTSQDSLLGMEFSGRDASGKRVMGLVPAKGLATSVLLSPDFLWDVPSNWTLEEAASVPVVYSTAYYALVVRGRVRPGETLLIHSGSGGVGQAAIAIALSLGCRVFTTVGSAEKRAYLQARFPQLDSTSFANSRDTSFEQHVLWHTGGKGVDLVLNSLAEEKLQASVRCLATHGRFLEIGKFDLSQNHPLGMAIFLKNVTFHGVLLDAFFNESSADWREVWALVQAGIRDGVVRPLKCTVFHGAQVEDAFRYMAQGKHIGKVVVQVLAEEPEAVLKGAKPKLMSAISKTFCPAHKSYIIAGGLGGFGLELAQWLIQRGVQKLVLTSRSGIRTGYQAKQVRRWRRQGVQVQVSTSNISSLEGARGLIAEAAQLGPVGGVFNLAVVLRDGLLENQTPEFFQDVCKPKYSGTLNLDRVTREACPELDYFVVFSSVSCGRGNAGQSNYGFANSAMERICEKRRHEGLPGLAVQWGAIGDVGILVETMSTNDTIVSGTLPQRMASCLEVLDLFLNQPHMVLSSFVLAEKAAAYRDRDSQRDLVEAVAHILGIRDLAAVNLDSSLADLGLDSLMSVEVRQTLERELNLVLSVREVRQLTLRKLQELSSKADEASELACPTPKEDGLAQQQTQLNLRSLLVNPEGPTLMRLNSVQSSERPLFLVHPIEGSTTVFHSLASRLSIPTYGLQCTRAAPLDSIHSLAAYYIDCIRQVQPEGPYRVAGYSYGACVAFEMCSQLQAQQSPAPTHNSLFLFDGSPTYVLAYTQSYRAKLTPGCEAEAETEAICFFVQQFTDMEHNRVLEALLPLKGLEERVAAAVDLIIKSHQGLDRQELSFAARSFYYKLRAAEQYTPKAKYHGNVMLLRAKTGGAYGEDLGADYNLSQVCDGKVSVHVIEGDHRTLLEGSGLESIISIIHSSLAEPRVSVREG

Compound: O=C(Nc1ccc(Cl)c(Cl)c1)C1CC(=O)N(c2ccc(Br)cc2)C1 (stereo unspecified)
- EC50 [1]: 5.25 µM (active)
- EC50 (Streptokinase A): 20.1 µM (active)
- IC50 (Prothrombin): > 50 µM (not active)
- EC50 (Streptococcus): 11.9 µM (active)

Compound: CC1OC(O[C@H]2CC[C@]3(C)C4C=C[C@]56OC[C@@]7(CC[C@@H](C)[C@H](C)C75)[C@H](O)C[C@@]6(C)[C@]4(C)CC[C@H]3C2(C)C)C(OC2OC(CO)C(O)C(O)C2OC2OCC(O)C(O)C2O)C(O)C1O (stereo partly specified)
- IC50 (Prothrombin): > 50 µM (not active)

Compound: Cc1c(NC(=O)CSc2nnc3c4ccccc4n(CCc4ccccc4)c3n2)c(=O)n(-c2ccccc2)n1C
- CC50 [2]: 4.56 µM (active)
- EC50 [3]: 24.1 µM (active)
- IC50 (cells): 3.31 µM (active)

Compound: Cc1cn([C@@H](CCCCNC(=O)OC(C)(C)C)C(=O)NCCCCCCCCCCC(=O)N2CCN(C(=O)OC(C)(C)C)CC2)nn1
- CC50 [4]: 37.6 µM (active)

Compound: COC(=O)c1cc(C)nc2c(C)cc3[nH]c4ccccc4c3c12
- CC50 [2]: 15 µM (active)
- CC50 [4]: > 40 µM (active)

Compound: Nc1[nH]cnc2nc(SCCN3CCCCC3)nc1-2
- IC50 (Prothrombin): > 50 µM (not active)

Compound: Cc1[nH][nH]c(=O)c1C(c1c(C)[nH][nH]c1=O)c1cn(Cc2ccc(Cl)c(Cl)c2)c2ccccc12
- EC50 (Streptokinase A): 10.1 µM (active)
- EC50 [3]: 27 µM (active)
- IC50 [5]: 5.81 µM (active)
- IC50 [6]: 6.19 µM (active)

Compound: COc1ccccc1-n1c(C)cc(/C=C2/C(=N)N3C(=NC2=O)SN=C3S(C)(=O)=O)c1C
- CC50 [2]: 19.8 µM (active)
- IC50 (cells): 11.4 µM (active)

Compound: Cc1ccc(C2CC(=O)NC(SCC(=O)Nc3nccs3)=C2C#N)cc1 (stereo unspecified)
- AC50 [7]: 51.5 µM (active)

Compound: O=C(COC(=O)c1cc(Br)ccc1O)Nc1cc(S(=O)(=O)N2CCCC2)ccc1Cl
- IC50 (Prothrombin): 7.17 µM (active)

Compound: O=C(O)c1ccc(Nc2nc(-c3ccc([N+](=O)[O-])cc3)nc3ccccc23)cc1
- IC50 [8]: 4.57 µM (active)
- IC50 [9]: 10.9 µM (active)

Compound: C/C(=N\NC(=O)c1cccc(Cl)c1)C1C(=O)c2ccccc2C1=O
- IC50 (Aminopeptidase N): 40.8 µM (active)
- AC50 [10]: 10.7 µM (active)
- AC50 [7]: 68.6 µM (active)

Compound: Cc1cc(=O)n(-c2ccc3ccccc3n2)[nH]1
- IC50 [5]: 24.2 µM (active)
- IC50 [6]: 30.4 µM (active)

Compound: C/C(=N\NS(=O)(=O)c1ccc(Cl)c([N+](=O)[O-])c1)c1cc2ccccc2o1
- IC50 [11]: 4.37 µM (active)
- IC50 (Fatty acid synthase [12]): 12.3 µM (active)
- IC50 [9]: 80 µM (inactive)
- IC50 (Fatty acid synthase [13]): 15.6 µM (active)
